# Data taken from ChEMBL document CHEMBL5257025, “Artemisinin-Derived Dimers: Potent Antimalarial and Anticancer Agents” (J Med Chem, 2016).
# pIC50: −log10 of the molar value.
# What was measured:
# XF498 = assay: Antiproliferative activity against human XF498 cells assessed as reduction in cell viability incubated for 48 hrs by MTT assay; format: functional, cell-based; conditions: XF498, 48 h
# SK-MEL = assay: Antiproliferative activity against human SK-MEL cells assessed as reduction in cell viability incubated for 48 hrs by MTT assay; format: functional, cell-based
# BT-474 = assay: Antiproliferative activity against human BT-474 cells assessed as reduction in cell growth measured after 72 hrs by MTT assay; format: functional, cell-based; conditions: BT-474, 72 h
# HL-60 = assay: Growth inhibition of human HL-60 cells assessed as cell growth inhibition measured after 48 hrs by MTT assay; format: functional
# Plasmodium falciparum [1] = assay: microbe, parasite or virus in culture; conditions: Dd2
# Description: Antiplasmodial activity against Plasmodium falciparum Dd2 assessed as inhibition of parasitic growth
# Plasmodium falciparum [2] = assay: Antimalarial activity against Plasmodium falciparum NF54 assessed as inhibition of cell growth incubated for 72 hrs by SYBR Green I staining based fluorescence analysis; format: functional, organism-based; conditions: NF54, 72 h
# Plasmodium falciparum [3] = assay: Antimalarial activity against Plasmodium falciparum HB3 assessed as inhibition of malarial growth; format: functional, organism-based
# Jurkat = assay: Antiproliferative activity against human Jurkat cells assessed as reduction in cell viability incubated for 48 hrs by MTT assay; format: functional, cell-based
# Plasmodium falciparum [4] = assay: Antimalarial activity against Plasmodium falciparum K1 assessed as inhibition of malarial growth; format: functional, organism-based
# HCT-116 = assay: Antiproliferative activity against human HCT-116 cells assessed as growth after 48 hrs by MTT assay; format: functional, cell-based; conditions: HCT-116, 48 h
# HeLa = assay: Antiproliferative activity against human Hela cells assessed as cell growth inhibition measured after 48 hrs by MTT assay; format: functional, cell-based
# [5] = Cytotoxicity against human HFF cells assessed as cell growth inhibition measured after 48 hrs by MTT assay; format: toxicity, cell-based
# TRAMP-C2H = assay: Cytotoxicity against mouse TRAMP-C2H cells assessed as inhibition of cell growth measured after 72 hs by MTT assay; format: functional, cell-based
# TRAMP-C1A = assay: Cytotoxicity against mouse TRAMP-C1A cells assessed as inhibition of cell growth measured after 72 hrs by MTT assay; format: functional, cell-based
# C2G cell line = assay: Cytotoxicity against mouse C2G cells assessed as inhibition of cell growth measured after 72 hrs by MTT assay; format: functional, cell-based
# C2D cell line = assay: Cytotoxicity against mouse C2D cell line assessed as inhibition of cell growth measured after 72 hrs by MTT assay; format: functional, cell-based
# Plasmodium falciparum [6] = assay: Antimalarial activity against Plasmodium falciparum NF54 assessed as reduction in cell growth; format: functional, organism-based
# MDA-MB-231 = assay: Antiproliferative activity against human MDA-MB-231 cells assessed as reduction in cell viability measured after 48 hrs by MTT assay; format: functional, cell-based; conditions: MDA-MB-231, 48 h
# [7] = Antiproliferative activity against human 1205Lu cells assessed as reduction in cell growth; format: functional, cell-based
structure (smiles),measurement,setting,value
C[C@@H]1CC[C@H]2[C@@H](C)C(CCC(=O)NCCCN3CCN(CCCNC(=O)CCC4O[C@H]5O[C@]6(C)CC[C@H]7[C@H](C)CC[C@@H]([C@H]4C)[C@@]57OO6)CC3)O[C@H]3O[C@]4(C)CC[C@@H]1[C@]32OO4 (some centres undefined),pIC50,XF498,6.34
same,pIC50,SK-MEL,6.35
C[C@@H]1CC[C@H]2[C@@H](C)C(CC(CC3O[C@@H]4O[C@]5(C)CC[C@@H]6[C@@H](C)CC[C@H]([C@@H]3C)[C@]46OO5)C(=O)NN)O[C@H]3O[C@@]4(C)CC[C@@H]1[C@]32OO4 (some centres undefined),pIC50,BT-474,7.89
C[C@@H]1CC[C@H]2[C@@H](C)C(CCN3CCC(C4CCN(CCC5O[C@H]6O[C@@]7(C)CC[C@H]8[C@H](C)CC[C@@H]([C@H]5C)[C@@]68OO7)CC4)CC3)O[C@H]3O[C@@]4(C)CC[C@@H]1[C@]32OO4 (some centres undefined),GI50,HL-60,400 nM
C[C@@H]1CC[C@H]2[C@@H](C)C(O)O[C@H]3O[C@]4(C)CC[C@@H]1[C@]32O4 (some centres undefined),pIC50,Plasmodium falciparum [1],5.56
C[C@H]1[C@H](CC(F)(F)c2ccc(C(F)(F)C[C@H]3O[C@H]4O[C@@]5(C)CC[C@H]6[C@H](C)CC[C@@H]([C@H]3C)[C@@]46OO5)cc2)O[C@H]2O[C@@]3(C)CC[C@H]4[C@H](C)CC[C@@H]1[C@@]24OO3,pIC50,Plasmodium falciparum [2],7.82
C[C@@H]1CC[C@H]2[C@@H](C)C(CCCOP(=O)(OCCC3O[C@H]4O[C@@]5(C)CC[C@H]6[C@H](C)CC[C@@H]([C@H]3C)[C@@]46OO5)Oc3ccccc3)O[C@H]3O[C@@]4(C)CC[C@@H]1[C@]32OO4 (some centres undefined),pIC50,Plasmodium falciparum [3],9.74
same,pIC50,Jurkat,4.88
same,pIC50,Plasmodium falciparum [4],9.30
same,GI50,HL-60,241 nM
C[C@@H]1CC[C@H]2[C@@H](C)C(CC(COP(=O)(O)Oc3ccccc3)CC3O[C@@H]4O[C@]5(C)CC[C@@H]6[C@@H](C)CC[C@H]([C@@H]3C)[C@]46OO5)O[C@H]3O[C@@]4(C)CC[C@@H]1[C@]32OO4 (some centres undefined),pIC50,HCT-116,5.18
same,pIC50,HeLa,4.73
same,IC50 at 48 h,[5],56500 nM
C[C@@H]1CC[C@H]2[C@@H](C)C(CC(COC(=O)c3cc[n+]([O-])cc3)CC3O[C@H]4O[C@@]5(C)CC[C@H]6[C@H](C)CC[C@@H]([C@H]3C)[C@@]46OO5)O[C@H]3O[C@@]4(C)CC[C@@H]1[C@]32OO4 (some centres undefined),pIC50,TRAMP-C2H,7.44
same,pIC50,TRAMP-C1A,7.07
same,pIC50,C2G cell line,7.32
same,pIC50,C2D cell line,7.21
same,pIC50,Plasmodium falciparum [6],9.28
C[C@@H]1CC[C@H]2[C@@H](C)C(CC(CC3O[C@@H]4O[C@]5(C)CC[C@@H]6[C@@H](C)CC[C@H]([C@@H]3C)[C@]46OO5)CN3CCN(c4ccccn4)CC3)O[C@H]3O[C@@]4(C)CC[C@@H]1[C@]32OO4 (some centres undefined),pIC50,BT-474,7.66
same,pIC50,MDA-MB-231,5.30
C[C@@H]1CC[C@H]2[C@@H](C)C(CC(CC3O[C@@H]4O[C@]5(C)CC[C@@H]6[C@@H](C)CC[C@H]([C@@H]3C)[C@]46OO5)CS(=O)(=O)c3ccc(COC(=O)N(C)C)cc3)O[C@H]3O[C@@]4(C)CC[C@@H]1[C@]32OO4 (some centres undefined),pIC50,HCT-116,7.15
same,pIC50,HeLa,6.57
same,IC50 at 48 h,[5],57500 nM
same,pIC50,[7],6.89
CC(=O)N1CCN(CC(CC2O[C@@H]3O[C@]4(C)CC[C@@H]5[C@@H](C)CC[C@H]([C@@H]2C)[C@]35OO4)CC2O[C@H]3O[C@@]4(C)CC[C@H]5[C@H](C)CC[C@@H]([C@H]2C)[C@@]35OO4)CC1 (some centres undefined),pIC50,BT-474,7.22
same,pIC50,MDA-MB-231,5.10
C[C@@H]1CC[C@H]2[C@@H](C)C(CC(COC(=O)CCC(=O)O)CC3O[C@H]4O[C@@]5(C)CC[C@H]6[C@H](C)CC[C@@H]([C@H]3C)[C@@]46OO5)O[C@H]3O[C@@]4(C)CC[C@@H]1[C@]32OO4 (some centres undefined),pIC50,BT-474,6.41
same,pIC50,Plasmodium falciparum [6],8.70
same,pIC50,MDA-MB-231,4.49
